Assay results as given in patent publication US11497206B2, “Cell cryopreservation protective composition and use thereof” (Tianjin University, priority 2016, dated 2022).
Counter-ions that a name gives are not always drawn.

Assays:
rabbit blood = test: Recovery survival rate of blood after cryopreservation in liquid nitrogen, hemolysis by microplate reader; type: cell-based
Experimental: (§1) (1) The respective cell cryopreservation protective solutions (consisting merely of PBS and the effective ingredients for cryopreservation) were prepared according to the following Table 9; (2) about 1×10^7 sheep blood cells or 20 μL rabbit blood was taken and added into about 1.5 mL to 1.8 mL of the cell cryopreservation protective solutions, and the suspensions were put into suitable freezing tubes and directly placed in liquid nitrogen for cryopreservation; (3) after cryopreservation, the cells were thawed and recovered at 37° C.; the survival rates were investigated by using a microplate reader (trademark: TECAN, model: […] 200 PRO) to determine the hemolysis in each sample, and the method for determining hemolysis is as follows: The recovered samples, a sample of PBS and a sample of water were placed in a centrifuge for centrifugation (2000 r/min, 10 min), and thereafter the supernatants were taken; the light transmittance thereof was measured using the microplate reader and the survival rates of the blood cells were calculated.

sheep blood cells [1] = test: Recovery survival rate of blood cells after cryopreservation in liquid nitrogen, hemolysis by microplate reader; type: cell-based
Experimental: as §1

sheep blood cells [2] = test: Influence of washing operation on survival rate of blood cells after 24 h immersion; settings: sheep blood cells immersed 24 h at 37° C., diluted 2 folds with PBS, washed by centrifugation (FIG. 11)
[3] = effective ingredient 6 mass % in PBS
[4] = effective ingredient 1 mass % in PBS
[5] = effective ingredient 2 mass % in PBS
[6] = effective ingredient 3 mass % in PBS
[7] = effective ingredient 4 mass % in PBS
[8] = effective ingredient 5 mass % in PBS
[9] = effective ingredient 40 mass % in PBS

C[N+](C)(C)C[C@H](O)CC(=O)[O-] [L-carnitine, 3-carboxy-2-hydroxy-N,N,N-trimethyl-1-propanaminium inner salt (2R)]
Recovery cell survival rate (rabbit blood; [3]): 84.3% | Recovery cell survival rate (sheep blood cells [1]; [3]): 84.0%

C[S+](C)[O-] [DMSO, Dimethyl sulfoxide]
Recovery cell survival rate (sheep blood cells [1]; [4]): 8.9% | Recovery cell survival rate (sheep blood cells [1]; [5]): 24.4% | Recovery cell survival rate (sheep blood cells [1]; [6]): 32.4% | Recovery cell survival rate (sheep blood cells [1]; [7]): 44.4% | Recovery cell survival rate (sheep blood cells [1]; [8]): 57.0% | Recovery cell survival rate (sheep blood cells [1]; [3]): 40.8%

OCC(O)CO [Glycerol]
Recovery cell survival rate (rabbit blood; [9]): 32.6% | Recovery cell survival rate (sheep blood cells [1]; [4]): 21.7% | Recovery cell survival rate (sheep blood cells [1]; [5]): 36.5% | Recovery cell survival rate (sheep blood cells [1]; [6]): 43.5% | Recovery cell survival rate (sheep blood cells [1]; [7]): 31.8% | Recovery cell survival rate (sheep blood cells [1]; [8]): 8.8% | Recovery cell survival rate (sheep blood cells [1]; [3]): 14.4% | Recovery cell survival rate (sheep blood cells [1]; effective ingredient 10 mass % in PBS): 35.8% | Recovery cell survival rate (sheep blood cells [1]; [9]): 48.0%

C=C(C)C(=O)OCC[N+](C)(C)CCCS(=O)(=O)[O-] [Sulfobetaine, 3-[dimethyl-[2-(2-methylprop-2-enoyloxy)ethyl]azaniumyl]propane-1-sulfonate]
Recovery cell survival rate (rabbit blood; [3]): 73.6% | Recovery cell survival rate (sheep blood cells [1]; [7]): 75.6%

C=C(C)C(=O)OCCOP(=O)([O-])OCC[N+](C)(C)C [Phosphorylcholine derivative, 2-(methacryloyloxy)ethyl-2-(trimethylammonio)ethyl phosphate]
Recovery cell survival rate (rabbit blood; [3]): 73.9% | Recovery cell survival rate (sheep blood cells [1]; [7]): 80.9%

C[N+](C)(C)CC(=O)[O-] [Betaine, trimethylammonium acetate]
Survival rates of blood cells before and after washing (sheep blood cells [2]): not affected | Recovery cell survival rate (rabbit blood; [7]): 55.2% | Recovery cell survival rate (rabbit blood; [8]): 75.1% | Recovery cell survival rate (rabbit blood; [3]): 85.4% | Recovery cell survival rate (rabbit blood; effective ingredient 15 mass % in PBS): 89.0% | Recovery cell survival rate (sheep blood cells [1]; [4]): 25.4% | Recovery cell survival rate (sheep blood cells [1]; [5]): 44.6% | Recovery cell survival rate (sheep blood cells [1]; [6]): 49.3% | Recovery cell survival rate (sheep blood cells [1]; [7]): 64.8% | Recovery cell survival rate (sheep blood cells [1]; [8]): 70.6% | Recovery cell survival rate (sheep blood cells [1]; [3]): 88.1%

C=CC(=O)NCCC[N+](C)(C)CCC(=O)[O-] [Carboxybetaine (meth)acrylamide, (3-acryloylaminopropyl)-(2-carboxyethyl)-dimethylammonium]
Recovery cell survival rate (rabbit blood; [3]): 65.1% | Recovery cell survival rate (sheep blood cells [1]; [7]): 71.3%
